Test results reported in PMC6979384, “Characterization of the plant homeodomain (PHD) reader family for their histone tail interactions” (Epigenetics & Chromatin, 2020).
Where no end group is shown, it is not given here.

How the values were obtained:
Assay in all cases: Histone peptide microarray
Assay type in all cases: binding, human
AIRE (PP) = conditions: histone peptide array, GST-tagged reader; arrays performed twice, n of 4
How it was run: (§1)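 A peptide microarray holding 293 synthetic histone peptides with individual or combinatorial modifications was probed with each GST-PHD protein at 0.5 μM. Values represent mean intensity (±SD) from four replicates.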

BAZ2B = conditions: histone peptide array, GST-tagged reader; arrays performed twice, n of 4
How it was run: as §1

BPTF (PB) = conditions: histone peptide array, GST-tagged reader; PB = PHD + Bromodomain; arrays performed twice, n of 4
How it was run: as §1

CHD4 (PPCC) = conditions: histone peptide array, GST-tagged reader; PPCC = Dual PHD + Dual Chromodomain; arrays performed twice, n of 4
How it was run: as §1

CHD5 (PCC) = conditions: histone peptide array, GST-tagged reader; PCC = PHD + Dual Chromodomain; arrays performed twice, n of 4
How it was run: as §1

CHD5 (PPCC) = conditions: histone peptide array, GST-tagged reader; PPCC = Dual PHD + Dual Chromodomain; arrays performed twice, n of 4
How it was run: as §1

DIDO1 = conditions: histone peptide array, GST-tagged reader; arrays performed twice, n of 4
How it was run: as §1

DPF2 (PPC2W2) = conditions: histone peptide array, GST-tagged reader; PPC2W2 = Dual PHD + C2W2-type Zn-finger; arrays performed twice, n of 4
How it was run: as §1

ING1 = conditions: histone peptide array, GST-tagged reader; arrays performed twice, n of 4
How it was run: as §1

ING2 = conditions: histone peptide array, GST-tagged reader; arrays performed twice, n of 4
How it was run: as §1

ING3 = conditions: histone peptide array, GST-tagged reader; arrays performed twice, n of 4
How it was run: as §1

ING4 = conditions: histone peptide array, GST-tagged reader; arrays performed twice, n of 4
How it was run: as §1

ING5 = conditions: histone peptide array, GST-tagged reader; arrays performed twice, n of 4
How it was run: as §1

KDM4C (TTP) = conditions: histone peptide array, GST-tagged reader; TTP = Tandem Tudor domain + PHD; arrays performed twice, n of 4
How it was run: as §1

KDM5A (1) = conditions: histone peptide array, GST-tagged reader; arrays performed twice, n of 4
How it was run: as §1

KDM5A (3) = conditions: histone peptide array, GST-tagged reader; arrays performed twice, n of 4
How it was run: as §1

KDM5B (1) = conditions: histone peptide array, GST-tagged reader; arrays performed twice, n of 4
How it was run: as §1

KDM5B (3) = conditions: histone peptide array, GST-tagged reader; arrays performed twice, n of 4
How it was run: as §1

KDM7A = conditions: histone peptide array, GST-tagged reader; arrays performed twice, n of 4
How it was run: as §1

MLL5 = conditions: histone peptide array, GST-tagged reader; arrays performed twice, n of 4
How it was run: as §1

MORC3 (CW) = conditions: histone peptide array, GST-tagged reader; CW = CW-type Zn-finger; arrays performed twice, n of 4
How it was run: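 Purified PHD finger domains fused to GST are screened against 293 synthetic histone peptides bearing one or several post-translational modifications. The protein is used at 0.5 μM, and the signal from four replicate arrays is averaged, with standard deviation given.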

PHF13 = conditions: histone peptide array, GST-tagged reader; arrays performed twice, n of 4
How it was run: as §1

PHF21A = conditions: histone peptide array, GST-tagged reader; arrays performed twice, n of 4
How it was run: as §1

PHF23 = conditions: histone peptide array, GST-tagged reader; arrays performed twice, n of 4
How it was run: as §1

PHF2 = conditions: histone peptide array, GST-tagged reader; arrays performed twice, n of 4
How it was run: as §1

PHF8 = conditions: histone peptide array, GST-tagged reader; arrays performed twice, n of 4
How it was run: as §1

PHRF1 (RP) = conditions: histone peptide array, GST-tagged reader; arrays performed twice, n of 4
How it was run: as §1

RAG2 = conditions: histone peptide array, GST-tagged reader; arrays performed twice, n of 4
How it was run: as §1

SP140L = conditions: histone peptide array, GST-tagged reader; arrays performed twice, n of 4
How it was run: as §1

TAF3 = conditions: histone peptide array, GST-tagged reader; arrays performed twice, n of 4
How it was run: as §1

TRIM66 (PB) = conditions: histone peptide array, GST-tagged reader; PB = PHD + Bromodomain; arrays performed twice, n of 4
How it was run: as §1

## H3.3K36ac (27-45): H3.3 27-45 (KSAPSTGGVK(Ac)KPHRYRPGT; UniProt P84243 28-46, looked up, fragment)
AIRE (PP)
  Array Heatmap signal, AIRE (PP): 0.5459
BAZ2B
  Array Heatmap signal, BAZ2B: 0.4933
BPTF (PB)
  Array Heatmap signal, BPTF (PB): 0.3342
CHD4 (PPCC)
  Array Heatmap signal, CHD4 (PPCC): 0.5592
CHD5 (PCC)
  Array Heatmap signal, CHD5 (PCC): 0.818
CHD5 (PPCC)
  Array Heatmap signal, CHD5 (PPCC): 0.5516
DIDO1
  Array Heatmap signal, DIDO1: 0.652
DPF2 (PPC2W2)
  Array Heatmap signal, DPF2 (PPC2W2): 0.6599
ING1
  Array Heatmap signal, ING1: 0.4834
ING2
  Array Heatmap signal, ING2: 0.5814
ING3
  Array Heatmap signal, ING3: 0.4435
ING4
  Array Heatmap signal, ING4: 0.4648
ING5
  Array Heatmap signal, ING5: 0.3709
KDM4C (TTP)
  Array Heatmap signal, KDM4C (TTP): 0.5383
KDM5A (1)
  Array Heatmap signal, KDM5A (1): 0.4872
KDM5A (3)
  Array Heatmap signal, KDM5A (3): 0.4209
KDM5B (1)
  Array Heatmap signal, KDM5B (1): 0.6658
KDM5B (3)
  Array Heatmap signal, KDM5B (3): 0.5076
KDM7A
  Array Heatmap signal, KDM7A: 0.4861
MLL5
  Array Heatmap signal, MLL5: 0.5589
MORC3 (CW)
  Array Heatmap signal, MORC3 (CW): 0.2989
PHF13
  Array Heatmap signal, PHF13: 0.6099
PHF21A
  Array Heatmap signal, PHF21A: 0.4713
PHF23
  Array Heatmap signal, PHF23: 0.4952
PHF2
  Array Heatmap signal, PHF2: 0.4404
PHF8
  Array Heatmap signal, PHF8: 0.3248
PHRF1 (RP)
  Array Heatmap signal, PHRF1 (RP): 0.3938
RAG2
  Array Heatmap signal, RAG2: 0.2614
SP140L
  Array Heatmap signal, SP140L: 0.378
TAF3
  Array Heatmap signal, TAF3: 0.2777
TRIM66 (PB)
  Array Heatmap signal, TRIM66 (PB): 0.5797
